The target in this experiment is T1, TthMutS (Thermus thermophilus, UniProt Q56239).
T1 construct: gene mutS; N-terminal His-tag translational fusion, tag kept; expressed in E. coli BL21(DE3)pLysS; IMAC purified; immobilized on nickel plate; 92 kDa monomer (stated for MutS generally)
T1 sequence (Q56239 2-819): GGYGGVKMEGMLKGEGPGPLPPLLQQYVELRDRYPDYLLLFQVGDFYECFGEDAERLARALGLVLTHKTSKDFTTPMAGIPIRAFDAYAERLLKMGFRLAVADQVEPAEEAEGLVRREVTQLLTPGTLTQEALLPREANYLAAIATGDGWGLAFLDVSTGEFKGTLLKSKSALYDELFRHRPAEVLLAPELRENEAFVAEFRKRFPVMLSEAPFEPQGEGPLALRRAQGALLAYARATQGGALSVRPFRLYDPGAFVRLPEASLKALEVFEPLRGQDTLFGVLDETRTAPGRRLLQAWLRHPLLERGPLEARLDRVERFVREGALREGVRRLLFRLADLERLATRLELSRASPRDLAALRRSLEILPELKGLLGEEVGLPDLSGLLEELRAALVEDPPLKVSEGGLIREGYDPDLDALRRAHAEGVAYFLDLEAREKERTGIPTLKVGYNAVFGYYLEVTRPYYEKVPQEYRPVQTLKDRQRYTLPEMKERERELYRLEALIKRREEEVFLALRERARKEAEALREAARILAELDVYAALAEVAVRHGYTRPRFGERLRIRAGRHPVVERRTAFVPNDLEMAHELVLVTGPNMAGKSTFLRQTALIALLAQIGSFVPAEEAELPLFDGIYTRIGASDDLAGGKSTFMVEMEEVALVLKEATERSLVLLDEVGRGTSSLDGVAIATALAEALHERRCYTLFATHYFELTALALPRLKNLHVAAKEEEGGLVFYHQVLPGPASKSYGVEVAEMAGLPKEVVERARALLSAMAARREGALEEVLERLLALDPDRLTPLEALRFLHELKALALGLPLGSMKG
The experiment can be described thus: colorimetric nickel-plate DNA mismatch binding assay (A620). Type of experiment: biochemical. Particulars: 1 mM ADP; 300 mM salt (PBSx2); room temperature; immobilized his-tagged protein; modulator of TG49 mismatch versus TA49 DNA binding.

On to `Nc1ncnc2c1ncn2[C@@H]1O[C@H](COP(=O)(O)OP(=O)(O)O)[C@@H](O)[C@H]1O` [ADP], for which the “colorimetric nickel-plate DNA mismatch binding assay (A620)” value is given as “In the presence of ADP, the specificity of MutS from T. thermophilus strongly increased”.

Values taken from article PMC4992025, “A Colorimetric Microplate Assay for DNA-Binding Activity of His-Tagged MutS Protein” (Molecular Biotechnology, 2016).
